{"source": "patent US20120135064A1", "about": "“CONJUGATED NANODELIVERY VEHICLES” (Northeastern University, priority 2009, published 2012)", "key": {"HPAF-II pancreatic tumor": {"test_system": "HPAF-II pancreatic tumor", "test": "In vivo therapeutic study, subcutaneous HPAF-II pancreatic tumor model, tumor volume", "set-up": "species or system nude mice", "details": "HPAF-II tumors; injections days 1, 4, 7, 10", "quoted_text": "Tumors were grown by subcutaneously injecting 2×10^6 HPAF-II cells in 0.1 ml of cell culture media. Daily tumor volume measurements were taken using an electronic digital caliper (Control Company, Friendswood, Tex.). The equation a^2×b×0.52 was used to calculate the tumor volume, where ‘a’ and ‘b’ corresponded to the longer and shorter diameters, respectively. […] Animals received injections of the various formulations when the tumors reached a size of about 150 mm^3; the untreated control group received no injections. […] Day 1 injection was 18 μg of 2-methoxyestradiol for both PCL formulations. Day 4, 7, and 10 injections corresponded to 24 μg of 2-methoxyestradiol for both formulations. […] The end of the study was three days after the fourth injection, at which point the mice were anesthetized with ketamine/xylazine."}, "[1]": {"test_system": "Capan-1, HPAF-II, PANC-1, MS1-VEGF and HMEC-1 cells", "test": "Bevacizumab cell toxicity assay (SRB)", "assay_type": "cell-based", "details": "24 h exposure; media containing or free of VEGF", "description": "Cells were seeded at 1×10^4 cells/well in 1 ml volumes in a 48-well plate. The cells were incubated for 24 h in a 37° C. cell culture incubator set at CO2 5%. […] After 24 h of incubation the SRB assay was performed (as described in, e.g., Dandamudi et al., Biochim. Biophys. Acta 1768:427-438 (2007); Skehan et al., J. Natl. Cancer Inst. 82:1107-1112 (1990); and Kalra et al., Pharm. Res. 23:2809-2817 (2006)). Briefly, the plates were washed twice with 1 ml/well of 1×PBS. Then, […] trichloracetic acid 50% solution (TCA; […]) was added to each well and the plates were stored at 4° C. for 1 h. The plates were thoroughly washed with distilled H2O five times and then 200 μl of SRB 0.4% was added to each well The plates were stored at room temperature for 30 min and then washed 4-6 times thoroughly with acetic acid 1% to remove excess SRB and air dried. 1 ml of […] was added to each well to solubilize the SRB and fluorescence intensity was measured at excitation wavelength of 540/20 and emission wavelength of 590/20 nm using FLX 800 Fluorescence Microplate Reader (Biotech instruments Inc., Winooski, Vt.). All groups were compared with untreated cells for statistical analysis."}}, "data": [{"substance": "bevacizumab: anti-VEGF antibody bevacizumab (Avastin, Roche)", "values": [{"measurement": "earliest day at which tumor response / significant benefit was seen", "setting": "HPAF-II pancreatic tumor", "result": 3, "unit": "days"}, {"measurement": "nontoxic concentration (maximum amount of antibody without altering the growth potential of the cells)", "setting": "[1]", "result": 500, "unit": "ng/mL"}]}]}
